# Reference: ChEMBL document CHEMBL4825753 (J Med Chem, 2021)
# pIC50: −log10 of the molar value. Active and inactive are the calls of the source. The rule behind the calls is not given here.
# What was measured:
# [1] = Fraction unbound in C57BL/6J mouse implanted with mouse BaF3 cells transfected with AXL in at 3 to 100 mg/kg, po bid for 6 days; format: ADME, organism-based; conditions: in vivo, dose 3-100 mg/kg, time 6 day
# BaF3 [2] = assay: Growth inhibition of mouse BaF3 cells transfected with MER assessed as inhibition of cell growth incubated for 72 hrs by Cell-titer-Glo assay; format: functional
# BaF3 [3] = assay: Growth inhibition of mouse BaF3 cells assessed as inhibition of cell growth incubated for 72 hrs by Cell-titer-Glo assay; format: functional
# BaF3 [4] = assay: Growth inhibition of mouse BaF3 cells transfected with AXL assessed as inhibition of cell growth incubated for 72 hrs by Cell-titer-Glo assay; format: functional
# BaF3 [5] = assay: Antitumour activity against mouse BaF3 cells transfected with AXL implanted in C57BL/6J mouse assessed as reduction in tumour growth at 3 to 100 mg/kg, po bid for 6 days; format: functional, organism-based; conditions: dose 3-100 mg/kg, time 6.0 day
# BaF3 [6] = assay: Antitumour activity against mouse BaF3 cells transfected with AXL implanted in C57BL/6J mouse assessed as reduction in AXL phosphorylation at 30 to 100 mg/kg, po bid for 6 days western blot analysis; format: functional, organism-based; conditions: dose 30-100 mg/kg, time 6.0 day
# BaF3 [7] = assay: Antitumour activity against mouse BaF3 cells transfected with MER implanted in C57BL/6J mouse assessed as reduction in tumour growth at 100 mg/kg, po bid for 6 days; format: functional, organism-based; conditions: time 6.0 day
# BaF3 [8] = assay: Growth inhibition of mouse BaF3 cells transfected with Tyro3 assessed as inhibition of cell growth incubated for 72 hrs by Cell-titer-Glo assay; format: functional
# BaF3 [9] = assay: Antitumour activity against mouse BaF3 cells transfected with MER implanted in C57BL/6J mouse assessed as reduction in MER phosphorylation at 30 to 100 mg/kg, po bid for 6 days by western blot analysis; format: functional, organism-based; conditions: dose 30-100 mg/kg, time 6.0 day
# [10] = Fraction unbound in C57BL/6J mouse implanted with mouse BaF3 cells transfected with MER in at 3 to 100 mg/kg, po bid for 6 days; format: ADME, organism-based; conditions: in vivo, dose 3-100 mg/kg, time 6 day
# MC-38 = assay: Antitumour activity against mouse MC38 cells implanted in C57BL6 mouse assessed as increase in survival at 100 mg/kg, po bid for 2 weeks co-treatment with anti-PD1 further treated with ionizing radiation; format: functional, organism-based
# BaF3 [11] = assay: Growth inhibition of mouse BaF3 cells transfected with FLT3 assessed as inhibition of cell growth incubated for 72 hrs by Cell-titer-Glo assay; format: functional
# [12] = biological target: T1, Tyrosine-protein kinase Mer (Homo sapiens, UniProt Q12866); assay: Inhibition of MER (unknown origin) by LC-MS analysis
# T1 sequence (Q12866 whole entry): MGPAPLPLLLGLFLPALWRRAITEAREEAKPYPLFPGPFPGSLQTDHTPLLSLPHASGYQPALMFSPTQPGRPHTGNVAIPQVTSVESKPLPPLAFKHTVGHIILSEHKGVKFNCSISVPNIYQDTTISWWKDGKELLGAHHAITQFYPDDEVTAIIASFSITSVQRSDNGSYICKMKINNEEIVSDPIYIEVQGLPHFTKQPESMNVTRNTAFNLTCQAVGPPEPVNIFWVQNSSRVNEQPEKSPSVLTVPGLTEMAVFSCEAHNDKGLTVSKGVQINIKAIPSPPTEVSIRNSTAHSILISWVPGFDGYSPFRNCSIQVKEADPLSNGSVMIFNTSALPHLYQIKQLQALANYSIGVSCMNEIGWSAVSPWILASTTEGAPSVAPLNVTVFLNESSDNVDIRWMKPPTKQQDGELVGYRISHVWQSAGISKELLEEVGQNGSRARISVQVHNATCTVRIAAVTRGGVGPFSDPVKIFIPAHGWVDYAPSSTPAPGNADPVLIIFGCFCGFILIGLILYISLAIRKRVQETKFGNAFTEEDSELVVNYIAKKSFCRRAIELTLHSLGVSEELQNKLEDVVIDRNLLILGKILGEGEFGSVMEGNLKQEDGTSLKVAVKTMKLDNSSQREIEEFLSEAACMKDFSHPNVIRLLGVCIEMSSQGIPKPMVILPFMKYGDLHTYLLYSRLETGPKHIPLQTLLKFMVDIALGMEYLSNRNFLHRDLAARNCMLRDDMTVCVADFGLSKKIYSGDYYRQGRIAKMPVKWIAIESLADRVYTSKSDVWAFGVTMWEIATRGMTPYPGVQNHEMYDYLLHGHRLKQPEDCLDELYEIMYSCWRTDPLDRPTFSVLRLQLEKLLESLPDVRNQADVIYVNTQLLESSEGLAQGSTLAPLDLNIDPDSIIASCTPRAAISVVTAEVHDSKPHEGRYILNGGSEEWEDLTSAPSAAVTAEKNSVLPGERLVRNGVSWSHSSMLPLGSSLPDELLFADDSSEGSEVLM
# [13] = biological target: T2, Tyrosine-protein kinase receptor UFO (Homo sapiens, UniProt P30530); assay: Inhibition of AXL (unknown origin) by LC-MS analysis
# T2 sequence (P30530 whole entry): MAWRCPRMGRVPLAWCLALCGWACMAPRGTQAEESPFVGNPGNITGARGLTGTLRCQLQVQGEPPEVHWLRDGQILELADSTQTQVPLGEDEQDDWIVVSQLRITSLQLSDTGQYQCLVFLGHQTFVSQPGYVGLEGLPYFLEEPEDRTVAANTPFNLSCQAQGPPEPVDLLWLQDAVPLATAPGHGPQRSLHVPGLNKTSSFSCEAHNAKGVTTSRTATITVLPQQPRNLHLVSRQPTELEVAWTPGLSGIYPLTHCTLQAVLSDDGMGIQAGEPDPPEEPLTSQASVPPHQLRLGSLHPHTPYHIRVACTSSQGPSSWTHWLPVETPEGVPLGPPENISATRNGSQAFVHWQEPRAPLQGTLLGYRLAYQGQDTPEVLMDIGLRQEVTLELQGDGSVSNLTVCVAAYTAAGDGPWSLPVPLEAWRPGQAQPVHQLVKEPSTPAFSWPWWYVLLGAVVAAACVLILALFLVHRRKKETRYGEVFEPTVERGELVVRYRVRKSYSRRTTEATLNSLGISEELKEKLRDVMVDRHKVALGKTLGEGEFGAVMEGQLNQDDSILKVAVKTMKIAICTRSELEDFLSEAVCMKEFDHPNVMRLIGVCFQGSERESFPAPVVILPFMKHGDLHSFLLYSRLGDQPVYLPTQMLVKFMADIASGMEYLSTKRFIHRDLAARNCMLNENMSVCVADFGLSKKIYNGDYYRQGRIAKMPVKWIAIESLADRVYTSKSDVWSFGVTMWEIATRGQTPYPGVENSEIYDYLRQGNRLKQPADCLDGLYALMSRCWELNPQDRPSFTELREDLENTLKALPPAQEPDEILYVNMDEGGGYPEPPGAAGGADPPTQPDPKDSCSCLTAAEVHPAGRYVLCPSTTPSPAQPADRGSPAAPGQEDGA
# [14] = Photostability of compound assessed as half life; format: physicochemical
SMILES,fraction unbound at 144 h [1],GI50 (BaF3 [2]) [nM],GI50 (BaF3 [3]) [nM],GI50 (BaF3 [4]) [nM],Activity (BaF3 [5]),Activity (BaF3 [6]),Activity (BaF3 [7]),GI50 (BaF3 [8]) [nM],Activity (BaF3 [9]),fraction unbound at 144 h [10],Activity (MC-38),GI50 (BaF3 [11]) [nM],pIC50 [12],pIC50 [13],half-life [14] [h]
Cc1cc(-c2c(C)nn(C)c2C)cnc1-c1nnc(N(C)Cc2ccc3ncc(-c4ccc(CN(C)C)cc4)n3c2)o1,0.076,25.1,3980,100,Active,Active,Active,5010,Active,0.076,Active,3160,,,
Cc1cc(-c2c(C)nn(C)c2C)ccc1-c1nnc(N(C)Cc2ccc3nccn3c2)o1,,,,,,,,,,,,,8.50,7.10,69
Cc1cc(-c2c(C)nn(C)c2C)cnc1-c1nnc(N(C)Cc2ccc3nccn3c2)o1,,,,,,,,,,,,,7.00,6.00,
